Measured values taken from PubChem BioAssay (NCI).
Several values for one entry are separate records, joined by “and”; a condition that tells them apart may be missing. Equal entries are not always repeated.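 Where inhibition never reached the appropriate level, the endpoint shown equals the highest concentration tested. Otherwise, values were interpolated linearly from a five-concentration, 48-hour dose response in 96-well plates. GI50: concentration for 50% inhibition of growth. TGI: total growth inhibition.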

Key:
Experiment in all cases: NCI tumour cell line growth inhibition, 48 h
786-0 renal = tested on: 786-0 renal
A498 renal = tested on: A498 renal
A549 NSCLC = tested on: A549 NSCLC
ACHN renal = tested on: ACHN renal
BT-549 breast = tested on: BT-549 breast
CAKI-1 renal = tested on: CAKI-1 renal
CCRF-CEM leukemia = tested on: CCRF-CEM leukemia
COLO 205 colon = tested on: COLO 205 colon
DLD-1 colon = tested on: DLD-1 colon
DMS 114 small cell lung = tested on: DMS 114 small cell lung
DMS 273 small cell lung = tested on: DMS 273 small cell lung
DU-145 prostate = tested on: DU-145 prostate
EKVX NSCLC = tested on: EKVX NSCLC
HCC-2998 colon = tested on: HCC-2998 colon
HCT-116 colon = tested on: HCT-116 colon
HCT-15 colon = tested on: HCT-15 colon
HL-60(TB) leukemia = tested on: HL-60(TB) leukemia
HOP-18 NSCLC = tested on: HOP-18 NSCLC
HOP-62 NSCLC = tested on: HOP-62 NSCLC
HOP-92 NSCLC = tested on: HOP-92 NSCLC
HS 578T breast = tested on: HS 578T breast
HT29 colon = tested on: HT29 colon
IGROV1 ovarian = tested on: IGROV1 ovarian
K-562 leukemia = tested on: K-562 leukemia
KM12 colon = tested on: KM12 colon
KM20L2 colon = tested on: KM20L2 colon
LOX IMVI melanoma = tested on: LOX IMVI melanoma
LXFL 529 NSCLC = tested on: LXFL 529 NSCLC
M14 melanoma = tested on: M14 melanoma
M19-MEL melanoma = tested on: M19-MEL melanoma
MALME-3M melanoma = tested on: MALME-3M melanoma
MCF7 breast = tested on: MCF7 breast
MDA-MB-231 breast = tested on: MDA-MB-231 breast
MDA-MB-435 = tested on: MDA-MB-435
MDA-N = tested on: MDA-N
MOLT-4 leukemia = tested on: MOLT-4 leukemia
NCI-H226 lung = tested on: NCI-H226 lung
NCI-H23 lung = tested on: NCI-H23 lung
NCI-H460 lung = tested on: NCI-H460 lung
NCI-H522 lung = tested on: NCI-H522 lung
NCI/ADR-RES ovarian = tested on: NCI/ADR-RES ovarian
OVCAR-3 ovarian = tested on: OVCAR-3 ovarian
OVCAR-4 ovarian = tested on: OVCAR-4 ovarian
OVCAR-5 ovarian = tested on: OVCAR-5 ovarian
OVCAR-8 ovarian = tested on: OVCAR-8 ovarian
PC-3 prostate = tested on: PC-3 prostate
RPMI-8226 leukemia = tested on: RPMI-8226 leukemia
RXF 393 renal = tested on: RXF 393 renal
RXF-631 renal = tested on: RXF-631 renal
SF-268 CNS = tested on: SF-268 CNS
SF-295 CNS = tested on: SF-295 CNS
SF-539 CNS = tested on: SF-539 CNS
SK-MEL-2 melanoma = tested on: SK-MEL-2 melanoma
SK-MEL-28 melanoma = tested on: SK-MEL-28 melanoma
SK-MEL-5 melanoma = tested on: SK-MEL-5 melanoma
SK-OV-3 ovarian = tested on: SK-OV-3 ovarian
SN12C renal = tested on: SN12C renal
SNB-19 CNS = tested on: SNB-19 CNS
SNB-75 CNS = tested on: SNB-75 CNS
SNB-78 CNS = tested on: SNB-78 CNS
SR leukemia = tested on: SR leukemia
SW-620 colon = tested on: SW-620 colon
T-47D breast = tested on: T-47D breast
TK-10 renal = tested on: TK-10 renal
U251 CNS = tested on: U251 CNS
UACC-257 melanoma = tested on: UACC-257 melanoma
UACC-62 melanoma = tested on: UACC-62 melanoma
UO-31 renal = tested on: UO-31 renal
XF 498 CNS = tested on: XF 498 CNS

For `COc1ccc(OC)c(/C=C/[N+](=O)[O-])c1`, the TGI (786-0 renal) was 4.09 µM and 3.21 µM, the GI50 (A498 renal) was 3.26 µM and the TGI (A498 renal) was 8.42 µM and 8.29 µM. The GI50 (A549 NSCLC) was 2.85 µM, the TGI (A549 NSCLC) was 15.4 µM and 13.6 µM and the TGI (ACHN renal) was 4.49 µM and 3.28 µM. The TGI (BT-549 breast) was 11.9 µM, the TGI (CAKI-1 renal) was 7.74 µM and 7.64 µM and the GI50 (CCRF-CEM leukemia) was 1.18 µM. The TGI (CCRF-CEM leukemia) was 14.6 µM and 5.38 µM, the TGI (COLO 205 colon) was 4.06 µM and 6.76 µM and the TGI (DLD-1 colon) was 8.65 µM. For the same compound, the TGI (DMS 114 small cell lung) was 11.9 µM, the TGI (DMS 273 small cell lung) was 6.99 µM and the GI50 (DU-145 prostate) was 2.57 µM. The TGI (DU-145 prostate) was 8.37 µM and 10.5 µM, the GI50 (EKVX NSCLC) was 2.42 µM and 6.47 µM and the TGI (EKVX NSCLC) was 6.18 µM and 16.7 µM. The GI50 (HCC-2998 colon) was 4.24 µM and 4.38 µM, the TGI (HCC-2998 colon) was 10.4 µM and 7.54 µM and the TGI (HCT-116 colon) was 12.7 µM and 6.06 µM. For the same compound, the TGI (HCT-15 colon) was 17.1 µM and 6.73 µM, the GI50 (HL-60(TB) leukemia) was 1.66 µM and 0.651 µM and the TGI (HL-60(TB) leukemia) was 4.5 µM and 2.79 µM. For the same compound, the TGI (HOP-18 NSCLC) was 3.85 µM, the TGI (HOP-62 NSCLC) was 8.27 µM and 9.56 µM and the GI50 (HOP-92 NSCLC) was 2.04 µM. The TGI (HOP-92 NSCLC) was 7.23 µM and 10.4 µM, the TGI (HS 578T breast) was 14.6 µM and the TGI (HT29 colon) was 6.33 µM and 7.41 µM. The GI50 (IGROV1 ovarian) was 2 µM and 3.79 µM, the TGI (IGROV1 ovarian) was 6.97 µM and 8.79 µM and the GI50 (K-562 leukemia) was 2.08 µM. The TGI (K-562 leukemia) was 6.96 µM and 14.8 µM, the GI50 (KM12 colon) was 2.6 µM and 13.3 µM and the TGI (KM12 colon) was 7.27 µM and 27.4 µM. The TGI (KM20L2 colon) was 9.34 µM, the GI50 (LOX IMVI melanoma) was 1.09 µM and the TGI (LOX IMVI melanoma) was 12.6 µM and 3.78 µM. The TGI (LXFL 529 NSCLC) was 4.83 µM, the TGI (M14 melanoma) was 4.44 µM and 6.86 µM and the TGI (M19-MEL melanoma) was 5.96 µM. The GI50 (MALME-3M melanoma) was 2.19 µM and 5.66 µM, the TGI (MALME-3M melanoma) was 7.26 µM and 11 µM and the TGI (MCF7 breast) was 8.64 µM. It also gave a TGI (MDA-MB-231 breast) of 5.32 µM, a TGI (MDA-MB-435) of 7.68 µM and a TGI (MDA-N) of 25.3 µM. The GI50 (MOLT-4 leukemia) was 1.1 µM and 2.52 µM, the TGI (MOLT-4 leukemia) was 5.31 µM and 9.59 µM and the GI50 (NCI-H226 lung) was 1.93 µM and 4.06 µM. The TGI (NCI-H226 lung) was 4.41 µM and 10.2 µM, the TGI (NCI-H23 lung) was 13.6 µM and 8.12 µM and the GI50 (NCI-H460 lung) was 2.91 µM. For the same compound, the TGI (NCI-H460 lung) was 9.32 µM and 13.9 µM, the TGI (NCI-H522 lung) was 2.96 µM and 4.78 µM and the TGI (NCI/ADR-RES ovarian) was 21 µM. The TGI (OVCAR-3 ovarian) was 4.9 µM and 3.31 µM, the TGI (OVCAR-4 ovarian) was 8.89 µM and 8.72 µM and the GI50 (OVCAR-5 ovarian) was 2.11 µM and 4.32 µM. For the same compound, the TGI (OVCAR-5 ovarian) was 4.45 µM and 9.01 µM, the GI50 (OVCAR-8 ovarian) was 3.31 µM and the TGI (OVCAR-8 ovarian) was 17.3 µM and 15.2 µM. The GI50 (PC-3 prostate) was 2.53 µM and 12.4 µM, the TGI (PC-3 prostate) was 7.37 µM and 27.9 µM and the GI50 (RPMI-8226 leukemia) was 1.74 µM. The TGI (RPMI-8226 leukemia) was 4.42 µM and 4.74 µM, the GI50 (RXF 393 renal) was 1.8 µM and the TGI (RXF 393 renal) was 3.59 µM and 3.54 µM. For the same compound, the TGI (RXF-631 renal) was 10.3 µM, the TGI (SF-268 CNS) was 10 µM and 12.3 µM and the GI50 (SF-295 CNS) was 3.09 µM. The TGI (SF-295 CNS) was 9.46 µM and 11.4 µM, the TGI (SF-539 CNS) was 13.8 µM and 10.4 µM and the TGI (SK-MEL-2 melanoma) was 5.48 µM and 9.88 µM. For the same compound, the TGI (SK-MEL-28 melanoma) was 4.96 µM and 9.45 µM, the GI50 (SK-MEL-5 melanoma) was 2.06 µM and the TGI (SK-MEL-5 melanoma) was 4.29 µM and 6.58 µM. For the same compound, the TGI (SK-OV-3 ovarian) was 26.2 µM and 10.3 µM, the TGI (SN12C renal) was 7.19 µM and 7.69 µM and the TGI (SNB-19 CNS) was 15.2 µM and 9.89 µM. The GI50 (SNB-75 CNS) was 5.3 µM, the TGI (SNB-75 CNS) was 12.9 µM and 11.8 µM and the TGI (SNB-78 CNS) was 58.8 µM. For the same compound, the GI50 (SR leukemia) was 0.467 µM and 0.865 µM, the TGI (SR leukemia) was 1.85 µM and 3.92 µM and the TGI (SW-620 colon) was 16.9 µM and 5.39 µM. The TGI (T-47D breast) was 46.8 µM, the GI50 (TK-10 renal) was 1.86 µM and 5.04 µM and the TGI (TK-10 renal) was 4.58 µM and 10.5 µM. The GI50 (U251 CNS) was 2.27 µM, the TGI (U251 CNS) was 8.86 µM and 7.37 µM and the GI50 (UACC-257 melanoma) was 3.19 µM. For the same compound, the TGI (UACC-257 melanoma) was 11.7 µM and 8.28 µM, the GI50 (UACC-62 melanoma) was 1.98 µM and 4.37 µM and the TGI (UACC-62 melanoma) was 5.34 µM and 12.1 µM. The TGI (UO-31 renal) was 3.39 µM and 5.62 µM and the TGI (XF 498 CNS) was 7.02 µM.
